From the supplement of paper PMC13380429

Key:
Conditions in all cases: 72 h
[1] = test system: Caco-2; assay: cell viability relative to DMSO; higher = less toxic
[2] = test system: Calu-3; assay: as above
[3] = test system: HepG2; assay: as above
[4] = test system: U2OS; assay: as above
[5] = test system: Vero E6; assay: as above
[6] = test system: Caco-2; assay: relative viability EC50 (midpoint between 100% and the lowest measured viability); higher = less toxic
[7] = test system: Calu-3; assay: as above
[8] = test system: HepG2; assay: as above
[9] = test system: U2OS; assay: as above
[10] = test system: Vero E6; assay: as above
[11] = test system: Caco-2; assay: drug sensitivity score (DSS) for viability; higher = more toxic; extreme values may be limits of the assay
[12] = test system: Calu-3; assay: as above
[13] = test system: HepG2; assay: as above
[14] = test system: U2OS; assay: as above
[15] = test system: Vero E6; assay: as above

Structure (SMILES)	cell viability ([1]; 1 nM) [%]	cell viability ([1]; 10 nM) [%]	cell viability ([1]; 100 nM) [%]	cell viability ([1]; 1000 nM) [%]	cell viability ([1]; 10000 nM) [%]	cell viability ([2]; 1 nM) [%]	cell viability ([2]; 10 nM) [%]	cell viability ([2]; 100 nM) [%]	cell viability ([2]; 1000 nM) [%]	cell viability ([2]; 10000 nM) [%]	cell viability ([3]; 1 nM) [%]	cell viability ([3]; 10 nM) [%]	cell viability ([3]; 100 nM) [%]	cell viability ([3]; 1000 nM) [%]	cell viability ([3]; 10000 nM) [%]	cell viability ([4]; 1 nM) [%]	cell viability ([4]; 10 nM) [%]	cell viability ([4]; 100 nM) [%]	cell viability ([4]; 1000 nM) [%]	cell viability ([4]; 10000 nM) [%]	cell viability ([5]; 1 nM) [%]	cell viability ([5]; 10 nM) [%]	cell viability ([5]; 100 nM) [%]	cell viability ([5]; 1000 nM) [%]	cell viability ([5]; 10000 nM) [%]	relative viability EC50 [6] [µM]	relative viability EC50 [7] [µM]	relative viability EC50 [8] [µM]	relative viability EC50 [9] [µM]	relative viability EC50 [10] [µM]	drug sensitivity score [11]	drug sensitivity score [12]	drug sensitivity score [13]	drug sensitivity score [14]	drug sensitivity score [15]
COc1ccc(OC)c2c(=S)c3ccccc3[nH]c12	112	96.7	99.5	102	88.6	105	100	99.4	108	106	88.8	96.3	94	98.9	76.6	102	98.3	102	99.7	103	99.4	104	102	97.2	96.2	> 10	> 10	> 10	> 10	> 10	0	0	1	0	0
CC(C)(C)NC(=O)[C@@H](c1cccnc1)N(C(=O)c1ccco1)c1ccc(C(C)(C)C)cc1 [ML188]	99.7	95	98.2	101	89.9	93.6	93.4	96.9	102	89.7	96.3	101	92.1	106	95	93.9	100	96.6	101	98.8	93.1	97.7	103	108	97.6	> 10	> 10	> 10	> 10	> 10	0	0	0	0	0
N=C(N)NCCC[C@@H](N)C(=O)N[C@@H](CCCNC(=N)N)C(=O)N1CCC[C@H]1C(=O)N1C[C@H](O)C[C@H]1C(=O)NCC(=O)N[C@@H](Cc1cccs1)C(=O)N[C@@H](CO)C(=O)N1Cc2ccccc2C[C@@H]1C(=O)N1[C@H](C(=O)N[C@@H](CCCNC(=N)N)C(=O)O)C[C@@H]2CCCC[C@@H]21 [icatibant-acetate]	96	100	90	91.4	103	107	92.8	98	98.6	104	91	93.3	84.7	102	102	102	98.8	103	98.1	101	99	97.9	101	101	101	> 10	> 10	> 10	> 10	> 10	0	0	0	0	0
CCn1cnc2c(Nc3cccc(Cl)c3)nc(N[C@@H]3CCCC[C@@H]3N)nc21	91.9	98.8	103	96.8	27.8	97.4	90.9	108	101	19.5	91.4	112	103	106	1.1	102	94.4	102	95.3	0.9	94.1	98.9	96.1	97.2	6.3	2.82	3.25	3.5	2.8	2.94	4.4	4.4	5	6.2	5.6
CC(C)(Cc1c[nH]c2ccc(Cl)cc12)NCCOc1ccccc1OCC1CC1	104	108	88.6	103	3.5	91.4	98.1	103	97.4	0.9	98.1	98.7	99.3	89.3	-0.3	102	102	102	97.3	1.5	93.9	98	93.4	99.4	24.4	3.33	2.98	2.28	2.97	3.11	5.1	5.9	7.3	5.8	4.3
C[Se]C[C@H](N)C(=O)O [Se-methylselenocysteine]	94.3	99.1	97.2	102	91.4	108	113	98.1	109	96.4	101	101	104	93	108	92.4	102	95.5	99.7	97.7	104	100	99.2	102	101	> 10	> 10	> 10	> 10	> 10	0	0	0	0	0
O=C(Nc1ccc(Br)cc1)c1cc(Br)cc(Br)c1O [tribomsalan]	90.7	90.3	94.7	105	76.3	94.4	92.2	93.2	102	91.2	102	104	94.5	99.7	82.7	96.6	98	96	102	96.4	93.5	100	91.1	93.7	98.6	> 10	> 10	> 10	> 10	> 10	0.6	0	0.4	0	0
